The test system of one assay is healthy men. In words: Plasma glucose during LEAP2 infusion with liquid mixed meal test, crossover study. The class given is in vivo, human. The following applies: mean ± SEM. From the text:
The infusion was terminated when participants had finished eating.
For analysis of plasma glucose, blood was distributed in fluoride heparin-coated tubes, centrifuged immediately for 30 s (12,100 g, room temperature) and measured bedside by the glucose oxidase method (YSI 2900 Biochemistry Analyzer; YSI Incorporated, Yellow Springs, Ohio, USA). For analysis of LEAP2, blood was collected in chilled K3EDTA tubes each containing 250 KIU of aprotinin. For analysis of acyl ghrelin, blood was collected in chilled K2EDTA tubes added 20 μL pefabloc (100 mg/mL; Merck Millipore, Burlington, Massachusetts, USA). Subsequently, pefabloc-treated plasma was acidified with HCl (12.5 μL 2M HCl per 500 μL plasma; Merck Millipore, Burlington, Massachusetts, USA). For analysis of glucagon, blood was collected in K2EDTA tubes. For analysis of GH, insulin, C-peptide, free fatty acids, glycerol, triglycerides and acetaminophen (paracetamol), blood was collected in tubes with lithium and heparin. All tubes were immediately cooled on ice, centrifuged for 15 min (2,000 g, 4°C) and stored at −80°C until analysis. LEAP2 concentrations were determined by an in-house radioimmunoassay directed against the N-terminal part of LEAP2. LEAP-2 was used for standards, and the tracer was a peptide composed of the 12 N-terminal amino acids of LEAP2, with a ^125I-labelled tyrosine added to the C-terminal end. The precision and accuracy of the assay were evaluated based on European Medicines Agency's guidelines for bioanalytical assay validation. […] Due to supply chain disruptions from the COVID-19 pandemic, acyl ghrelin was only measured in plasma samples at timepoints 0, 60, 105, 165 and 255 min. […] Plasma GH was measured by Immunodiagnostic system-iSYS assay (IS-3700; IDS Limited, Boldon, UK). The assay is based on chemiluminesence technology and was performed according to the manufacturer’|'s instructions. […] For analysis of glucagon, plasma was extracted in a final concentration of 70% ethanol. Glucagon was measured using a C-terminal directed antiserum (code number 4305) measuring glucagon of pancreatic origin as previously described.[40] […] Plasma insulin and C-peptide were measured using a two-sided electrochemiluminescence immunoassay (Atellica IM Analyzer; Siemens Healthcare, Ballerup, Denmark). Plasma triglycerides and acetaminophen were analyzed by spectrophotometric methods following enzymatic hydrolysis and oxidation (Siemens Atellica CH 930; Siemens Healthcare, Ballerup, Denmark). Plasma concentrations of free fatty acids and glycerol were determined by enzymatic methods modified to run on a COBAS 6000 automatic analyzer (Roche, Rødovre, Denmark) using a NEFA-HR assay (Wako Chemicals, Neuss, Germany) and glycerol assay (Randox Laboratories, Crumlin, UK), respectively.
Unless otherwise stated, results are presented as mean ± SEM. Baseline values were calculated as a mean of timepoints −35, −10 and 0 min or, when only available −10 and 0 min. Baseline values for the postprandial period were calculated as a mean of timepoint 60 min. Calculations of AUC were based on the trapezoidal rule. AUC values are reported for the period 0 to 255 min. To assess the fasting and postprandial periods separately, AUC values are reported for the periods 0 to 60 min and 60 to 255 min, respectively. Student’s paired t test was used to test for differences in baseline, peak, time to peak, AUC and mean values and ad libitum food intake in men.

A further assay concerns GHSR-null mice. In words: Plasma glucose and food intake after subcutaneous LEAP2 in GHSR-null mice. The class given is in vivo, mouse. Conditions: female GHSR-null mice n = 8, LEAP2 3 μmol/kg subcutaneous. How it is done: (§1) Food intake and blood glucose measurements were measured in female GHSR-null mice (n = 8) and wild-type littermates (n = 10) (14–24 weeks of age). Mice were double-housed with matching genotype and age. All mice were fasted for four hours and randomized by mean body weight per cage and allocated into either vehicle (saline) or LEAP2 administration on the first day of the study. LEAP2 or vehicle was administered subcutaneously just before start of dark phase (6 PM). By start of dark phase, mice had ad libitum access to water and a normal chow diet. Cumulative food intake was measured one, two and four hours after administration and calculated as the average food intake per cage per g body weight of each mouse, respectively. Blood glucose was measured in blood from a tail puncture at baseline and one, two and four hours after administration by use of a glucometer (Contour ™xt meter; Ascensia Diabetes Care, Basel, Switzerland). One week later, mice underwent the same procedure, but with the opposite treatment. The concentration of the LEAP2 dose was 3 μmol/kg.

The next assay deals with wild-type mice. The assay is described as follows: Plasma glucose and food intake after subcutaneous LEAP2 in wild-type mice. The class given is in vivo, mouse. How it is done: as §1
[1] abbreviates: healthy men n = 20, iv LEAP2 ~25 pmol/kg/min, liquid mixed meal at 65 min.

Where a SMILES comes first, the peptide text is derived from it. Bridges are numbered along the chain shown (N, C = ends).

As for `CC[C@H](C)[C@@H]1NC(=O)[C@@H]2CSSC[C@@H](C(=O)N[C@@H](CO)C(=O)N[C@@H](CC(C)C)C(=O)N[C@@H](CO)C(=O)N[C@H](C(=O)N[C@@H](C)C(=O)N[C@@H](CCC(N)=O)C(=O)N[C@@H](CCC(=O)O)C(=O)O)C(C)C)NC(=O)[C@H](CCCNC(=N)N)NC(=O)[C@H](CCCNC(=N)N)NC(=O)[C@H](CCCCN)NC(=O)[C@H](CCCNC(=N)N)NC(=O)[C@H](CSSC[C@H](NC(=O)[C@H](CO)NC(=O)[C@H](C)NC(=O)CNC(=O)[C@@H](NC(=O)[C@@H]3CCCN3C(=O)[C@H](CCCNC(=N)N)NC(=O)[C@H](CC(C)C)NC(=O)[C@H](CO)NC(=O)[C@@H](NC(=O)CNC(=O)[C@H](CCCNC(=N)N)NC(=O)[C@H](Cc3c[nH]c4ccccc34)NC(=O)[C@H](Cc3ccccc3)NC(=O)[C@@H]3CCCN3C(=O)[C@@H](NC(=O)[C@@H](N)CCSC)[C@@H](C)O)C(C)C)[C@@H](C)CC)C(=O)N[C@@H](CCCNC(=N)N)C(=O)N[C@@H](CC(=O)O)C(=O)N[C@@H](CC(=O)O)C(=O)N[C@@H](CO)C(=O)N[C@@H](CCC(=O)O)C(=O)N2)NC(=O)[C@H](CC(C)C)NC(=O)[C@H](CCCNC(=N)N)NC(=O)[C@H]([C@@H](C)O)NC1=O` [LEAP2, liver-expressed antimicrobial peptide 2] (H-MTPFWRGVSLRPIGASCRDDSECITRLCRKRRCSLSVAQE-OH; disulfide 17-28, 23-33 (inferred); N-terminus and C-terminus assumed), in the assay on healthy men (healthy men n = 20, LEAP2 day, before infusion (mean of -35, -10, 0 min)), the “Glucose Baseline” value came to 5.02 ± 0.06 mmol/L. For the same compound, in the assay with healthy men (healthy men n = 20, iv LEAP2 ~25 pmol/kg/min, 0 to 255 min, trapezoidal), the “Glucose AUC” value was 1,288 ± 13.4 mmol/L × min. Besides, the “Glucose Postprandial end” value in the assay with healthy men (healthy men n = 20, iv LEAP2 ~25 pmol/kg/min, after liquid mixed meal) was found to be 4.48 ± 0.11 mmol/L. For the same compound, the plasma glucose AUC 0–60 min in the assay on healthy men (healthy men n = 20, iv LEAP2 ~25 pmol/kg/min, fasting period) turned out to be 295 ± 3.02 mmol/L/min. Further, in the assay with healthy men (setting [1]), the “Glucose Peak” value is on record as 6.21 ± 0.12 mmol/L and the “Glucose Time to peak” value was 140 ± 12.7 min. In addition, the “Glucose AUC60–255 min” value with healthy men (healthy men n = 20, iv LEAP2 ~25 pmol/kg/min, postprandial period after liquid mixed meal) was determined as 992 ± 12.4 mmol·min/L. In addition, the “Glucose Postprandial baseline” value in the assay on healthy men (healthy men n = 20, iv LEAP2 ~25 pmol/kg/min, time = 60 min) worked out at 4.96 ± 0.05 mmol/L. Besides, in the assay with GHSR-null mice, the “cumulative food intake after dosing vs vehicle” value is reported as “no effect” and the “plasma glucose after dosing vs vehicle” value is “did not affect plasma glucose”. Besides, in the assay with wild-type mice (female wild-type mice n = 10, LEAP2 3 μmol/kg single subcutaneous dose, after 4 h fast), the “plasma glucose during ad libitum food intake 1 h after dosing vs vehicle” value was “significantly diminished increases in plasma glucose”. Moreover, the “glucose-lowering effect at later time points (2 and 4 h)” value with wild-type mice (female wild-type mice n = 10, LEAP2 3 μmol/kg subcutaneous) is recorded as “not at the later time points”. In addition, in the assay on wild-type mice (female wild-type mice n = 10, LEAP2 3 μmol/kg subcutaneous, chow ad libitum from start of dark phase), the “cumulative food intake 2 and 4 h after dosing vs vehicle” value is on record as “lowered the cumulative food intake”.

Values taken from article PMC9043997, “LEAP2 reduces postprandial glucose excursions and ad libitum food intake in healthy men” (Cell Reports Medicine, 2022).
